ChEMBL document CHEMBL1146569, “The pterocellins, novel bioactive alkaloids from the marine bryozoan Pterocella vesiculosa” (J Nat Prod, 2003)

Tests used:
Type in all cases: functional
SK-MEL-5 = experiment: Growth inhibition of human SK-MEL-5 cells
SW-620 = experiment: Growth inhibition of human SW620 cells
HCC 2998 = experiment: Growth inhibition of human HCC2998 cells
Amorphotheca resinae = experiment: Antimicrobial activity against Cladosporium resinae assessed per disk
OVCAR-3 = experiment: Growth inhibition of human OVCAR-3 cells
CAKI-1 = experiment: Growth inhibition of human Caki1 cells
NCI-H23 = experiment: Growth inhibition of human NCI-H23 cells
SK-OV-3 = experiment: Growth inhibition of human SKOV3 cells
HOP-62 = experiment: Growth inhibition of human HOP62 cells
MDA-N = experiment: Growth inhibition of human MDA-N cells
SF-268 = experiment: Growth inhibition of human SF268 cells
Escherichia coli = experiment: Antimicrobial activity against Escherichia coli assessed per disk
PC-3 = experiment: Growth inhibition of human PC3 cells
ACHN = experiment: Growth inhibition of human ACHN cells
Candida albicans = experiment: Antimicrobial activity against Candida albicans assessed per disk
CCRF-CEM = experiment: Growth inhibition of human CCRF-CEM cells
OVCAR-4 = experiment: Growth inhibition of human OVCAR4 cells
TK-10 = experiment: Growth inhibition of human TK10 cells
SF-295 = experiment: Growth inhibition of human SF295 cells
OVCAR-5 = experiment: Growth inhibition of human OVCAR5 cells
UACC-62 = experiment: Growth inhibition of human UACC62 cells
Malme-3M = experiment: Growth inhibition of human MALME-3M cells
MOLT-4 = experiment: Growth inhibition of human MOLT4 cells
HCT-116 = experiment: Growth inhibition of human HCT116 cells
SK-MEL-2 = experiment: Growth inhibition of human SK-MEL-2 cells
SR = experiment: Growth inhibition of human SR cells
NCI-H460 = experiment: Growth inhibition of human NCI-H460 cells
SN12C = experiment: Growth inhibition of human SN12C cells
IGROV-1 = experiment: Growth inhibition of human IGROV1 cells
A549 = experiment: Growth inhibition of human A549 cells
COLO 205 = experiment: Growth inhibition of human COLO205 cells
M14 = experiment: Growth inhibition of human M14 cells
MDA-MB-435 = experiment: Growth inhibition of human MDA-MB-435 cells
RXF 393 = experiment: Growth inhibition of human RXF393 cells
U-251 = experiment: Growth inhibition of human U251 cells
HL-60(TB) = experiment: Growth inhibition of human HL-60(TB) cells
NCI-H322M = experiment: Growth inhibition of human NCI-H322M cells
EKVX = experiment: Growth inhibition of human EKVX cells
SK-MEL-28 = experiment: Growth inhibition of human SK-MEL-28 cells
NCI-H226 = experiment: Growth inhibition of human NCI-H226 cells
SNB-75 = experiment: Growth inhibition of human SNB75 cells
SNB-19 = experiment: Growth inhibition of human SNB19 cells
UACC-257 = experiment: Growth inhibition of human UACC257 cells
HCT-15 = experiment: Growth inhibition of human HCT15 cells
NCI-H522 = experiment: Growth inhibition of human NCI-H522 cells
[1] = read-out: LC50 (the source's name)

## COc1cn2c(cc1=O)C(=O)c1ccnc(Cc3ccccc3)c1-2 [PTEROCELLIN B]
SK-MEL-5
  GI50: 0.1 µM
  TGI: 0.3 µM
SK-MEL-5; [1]
  CC50: 0.5 µM
SW-620
  GI50: 0.7 µM
  LC50 (concentration killing 50% of cells): 4.9 µM
  TGI: 2 µM
HCC 2998
  GI50: 0.4 µM
  LC50 (concentration killing 50% of cells): 3.2 µM
  TGI: 1 µM
Amorphotheca resinae
  MIC: >60 µg
OVCAR-3
  GI50: 0.2 µM
  TGI: 0.6 µM
OVCAR-3; [1]
  CC50: 3.2 µM
CAKI-1
  GI50: 1.5 µM
  TGI: 3.3 µM
CAKI-1; [1]
  CC50: 7.4 µM
NCI-H23
  GI50: 0.1 µM
  LC50 (concentration causing 50% net cell kill): 0.7 µM
  TGI: 0.3 µM
SK-OV-3
  GI50: 2.7 µM
  TGI: 13.8 µM
SK-OV-3; [1]
  CC50: 47.1 µM
HOP-62
  GI50: 1 µM
  TGI: 2.1 µM
HOP-62; [1]
  CC50: 4.6 µM
MDA-N
  GI50: 0.2 µM
  TGI: 0.3 µM
MDA-N; [1]
  CC50: 0.6 µM
SF-268
  GI50: 1.7 µM
  LC50 (concentration killing 50% of cells): 21.5 µM
  TGI: 5.5 µM
Escherichia coli
  MIC: >60 µg
PC-3
  GI50: 1.6 µM
  LC50 (concentration killing 50% of cells): 26.6 µM
  TGI: 5.9 µM
ACHN
  GI50: 1.1 µM
  TGI: 2.9 µM
ACHN; [1]
  CC50: 7.8 µM
Candida albicans
  MIC: >60 µg
CCRF-CEM
  GI50: 1.7 µM
  TGI: 5.2 µM
CCRF-CEM; [1]
  CC50: > 100 µM
OVCAR-4
  GI50: 1.3 µM
  LC50: 5.6 µM
  TGI: 2.7 µM
TK-10
  GI50: 1.5 µM
  TGI: 2.9 µM
TK-10; [1]
  CC50: 5.6 µM
SF-295
  GI50: 0.3 µM
  LC50 (concentration killing 50% of starting cells): 4 µM
  TGI: 1.6 µM
OVCAR-5
  GI50: 1.2 µM
  TGI: 2.4 µM
OVCAR-5; [1]
  CC50: 4.9 µM
UACC-62
  GI50: 0.2 µM
  LC50 (50% cell kill): 4.1 µM
  TGI: 0.6 µM
Malme-3M
  GI50: 0.03 µM
  TGI: 0.1 µM
Malme-3M; [1]
  CC50: 0.3 µM
MOLT-4
  GI50: 1.4 µM
  LC50 (concentration killing 50% of cells): 5.6 µM
  TGI: 2.9 µM
HCT-116
  GI50: 0.5 µM
  LC50: 4 µM
  TGI: 1.6 µM
SK-MEL-2
  GI50: 0.7 µM
  TGI: 2.2 µM
SK-MEL-2; [1]
  CC50: 5.3 µM
SR
  GI50: 0.2 µM
  TGI: 1.3 µM
SR; [1]
  CC50: 3.7 µM
NCI-H460
  GI50: 0.2 µM
  LC50 (concentration causing 50% cell kill): 5.5 µM
  TGI: 0.8 µM
SN12C
  GI50: 0.5 µM
  LC50: 5.5 µM
  TGI: 1.8 µM
IGROV-1
  GI50: 1 µM
  TGI: 2.5 µM
IGROV-1; [1]
  CC50: 6 µM
A549
  GI50: 0.2 µM
  LC50 (50% cell kill concentration): 1.8 µM
  TGI: 0.5 µM
COLO 205
  GI50: 0.7 µM
  TGI: 2.3 µM
COLO 205; [1]
  CC50: 6.1 µM
M14
  GI50: 0.1 µM
  LC50 (concentration killing 50% of cells): 0.5 µM
  TGI: 0.2 µM
MDA-MB-435
  GI50: 0.2 µM
  TGI: 0.3 µM
MDA-MB-435; [1]
  CC50: 0.6 µM
RXF 393
  GI50: 2.4 µM
  LC50: 45.2 µM
  TGI: 6.9 µM
U-251
  GI50: 1 µM
  TGI: 2.2 µM
U-251; [1]
  CC50: 4.7 µM
HL-60(TB)
  GI50: 1 µM
  TGI: 5.1 µM
HL-60(TB); [1]
  CC50: 43.5 µM
NCI-H322M
  GI50: 1.1 µM
  LC50 (concentration killing 50% of cells): 4.7 µM
  TGI: 2.2 µM
EKVX
  GI50: 1.4 µM
  TGI: 3.8 µM
EKVX; [1]
  CC50: 10.7 µM
SK-MEL-28
  GI50: 1 µM
  TGI: 2.6 µM
SK-MEL-28; [1]
  CC50: 6.7 µM
NCI-H226
  GI50: 1.4 µM
  TGI: 3.5 µM
NCI-H226; [1]
  CC50: 8.4 µM
SNB-75
  GI50: 0.2 µM
  TGI: 0.9 µM
SNB-75; [1]
  CC50: 5.3 µM
SNB-19
  GI50: 1.6 µM
  TGI: 3.3 µM
SNB-19; [1]
  CC50: 7 µM
UACC-257
  GI50: 0.2 µM
  TGI: 0.7 µM
UACC-257; [1]
  CC50: 2.9 µM
HCT-15
  GI50: 0.5 µM
  TGI: 1.8 µM
HCT-15; [1]
  CC50: 4.9 µM
NCI-H522
  GI50: 1.1 µM
  TGI: 2.4 µM
NCI-H522; [1]
  CC50: 5.2 µM
